Data: patent publication US12593845B2 (priority 2019, dated 2026)

Assays:
[1] = test system: apple scab pathogen (Venturia inaequalis); assay: Apple scab control test; type: in vivo; settings: 336 h, 125 ppm drug solution sprayed onto apple seedlings (Orin), lesion area ratio 2 weeks after inoculation
Method: 5 parts by weight of the dihydropyrimidine compound of the present invention, 93.5 parts by weight of N,N-dimethylformamide, and 1.5 parts by weight of polyoxyethylene sorbitan monolaurate (TWEEN® 20) were mixed and dissolved to obtain an emulsion (I) including 5% of an active ingredient.
The control value was calculated by the following expression. Control value (%)=100−{lesion area ratio in treated group/lesion area ratio in untreated group}×100 [Expression 1]
Water was added to the emulsion (I) such that the concentration of the dihydropyrimidine compound reached 125 ppm to dissolve the emulsion, and a drug solution was obtained. Subsequently, the drug solution was sprayed onto apple seedlings (variety: “Orin”, leaf stage: 3 to 4) cultivated in seedling pots. After air drying, the seedlings were inoculated with conidiospores of an apple scab pathogen (Venturia inaequalis) (treated group). As a control, apple seedlings that were not sprayed with the drug solution were inoculated in the same manner (untreated group). The seedlings were left to stand in a humidified room at 20° C. using a 12 hour light/dark cycle.
On the day 2 weeks after the inoculation, the leaves of the apple seedlings were visually observed to determine the lesion area ratio, and the control value was calculated.

[2] = test system: Aspergillus niger; assay: Antimicrobial test against Aspergillus niger; type: cell-based; settings: 96 h, Vogel medium, 25° C., 4 days in the dark, turbidity at 405 nm, read-out: growth inhibition rate
Method: Spores of Aspergillus niger were added to and dispersed in a Vogel medium, and a dihydropyrimidine compound dissolved in dimethyl sulfoxide was added and mixed thereto at 25 ppm. The resulting solution was dispensed onto a 96-well microplate and cultivated in the dark at 25° C. for 4 days.
After the cultivation, the turbidity at a wavelength of 405 nm was measured by a microplate reader and compared with that in the untreated case to determine the growth inhibition of Aspergillus niger (%) was determined.

Structure (SMILES) | pest or weed control at 125 ppm [1] [%] | inhibition at 25 ppm [2] [%]
CCOC(=O)C(C)(C)Cn1c(=O)c(/C(C)=N/OC(C)C)cn(CC(=O)c2cc(F)ccc2OC)c1=O [A-3] | ≥ 75 | 
C=CCON=Cc1cn(CC(OCCC#N)c2cc(F)ccc2OC)c(=O)n(C(C)C(=O)NC(C)C)c1=O (centres unmarked) [A-5] | ≥ 75 | 
CON=Cc1cn(CC(OCCC#N)c2cc(F)ccc2OC)c(=O)n(C(C)C(=O)NC(C)C)c1=O (centres unmarked) [A-6] | ≥ 75 | 
CCON=Cc1cn(CC(O)c2cc(F)ccc2OC)c(=O)n(CC(C)(C)C(=O)NC(C)C)c1=O (centres unmarked) [A-8] | ≥ 75 | 
COc1ccc(F)cc1C(Cn1cc(C=NOCC2CC2)c(=O)n(C(C)C(=O)NC(C)C)c1=O)OCCC#N (centres unmarked) [A-9] | ≥ 75 | 
CCON=Cc1cn(CC(OCCC#N)c2cc(F)ccc2OC)c(=O)n(CC(C)(C)C(=O)OCC)c1=O (centres unmarked) [A-13] | ≥ 75 | 
CCON=Cc1cn(CC(O)c2cc(F)ccc2OC)c(=O)n(CC(C)(C)C(=O)OCC)c1=O (centres unmarked) [A-15] | ≥ 75 | 
CCON=Cc1cn(CC(OCCC#N)c2cc(F)ccc2OC)c(=O)n(CCNC(=O)c2ccc(F)cc2)c1=O (centres unmarked) [A-16] | ≥ 75 | 
CCON=Cc1cn(CC(O)c2cc(F)ccc2OC)c(=O)n(CCNC(=O)OC(C)(C)C)c1=O (centres unmarked) [A-19] | ≥ 75 | 
CCON=Cc1cn(CC(=O)c2cc(F)ccc2OC)c(=O)n(CCNC(=O)OC(C)(C)C)c1=O [A-20] | ≥ 75 | 
C#CCON=Cc1cn(CC(OCCC#N)c2cc(F)ccc2OC)c(=O)n(C(C)C(=O)NC(C)C)c1=O (centres unmarked) [A-21] | ≥ 75 | 
COc1ccc(F)cc1C(Cn1cc(C=NOCC(F)(F)F)c(=O)n(C(C)C(=O)NC(C)C)c1=O)OCCC#N (centres unmarked) [A-22] | ≥ 75 | 
CCO/N=C(\C)c1cn(CC(=O)c2cc(F)ccc2OC)c(=O)n(CC(C)(C)C(=O)NC(C)C)c1=O [A-26] | ≥ 75 | 
CCO/N=C(\C)c1cn(CC(=O)c2cc(F)ccc2OC)c(=O)n(CCNC(=O)C(C)C)c1=O [A-36, N-(2-(5-(1-(ethoxyimino)ethyl)-3-(2-(5-fluoro-2-methoxyphenyl)-2-oxoethyl)-2,6-dioxo-3,6-dihydropyrimidin-1(2H)-yl)ethyl)isobutyramide] | ≥ 75 | 
COc1cccc(C(O)Cn2cc(/C(C)=N/OC(C)C)c(=O)n(C[C@H](C)NC(=O)C(C)C)c2=O)c1 (some centres unmarked) [A-40] | ≥ 75 | 
CCO/N=C(\C)c1cn(/C=C(\OC(=O)C(C)C)c2cc(F)ccc2OC)c(=O)n(C2CCCC2NC(=O)C(C)C)c1=O (centres unmarked) [A-44] | ≥ 75 | 
COc1ccc(F)cc1C(Cn1cc(C=NOC(C)C)c(=O)n(C(C)C(=O)N2CCSCC2)c1=O)OCCC#N (centres unmarked) [A-67] | ≥ 75 | 
COc1ccc(F)cc1C(O)Cn1cc(C=NOC(C)C)c(=O)n(C(C)C(=O)N2CCSCC2)c1=O (centres unmarked) [A-72] | ≥ 75 | 
COc1ccc(F)cc1C(O)Cn1cc(/C=N\OC(C)C)c(=O)n(CC(=O)N2CCCCC2)c1=O (centres unmarked) [A-83] | ≥ 75 | 
COc1ccc(F)cc1C(O)Cn1cc(C=NOC(C)C)c(=O)n(CC(=O)NC(C)C)c1=O (centres unmarked) [A-85] | ≥ 75 | 

Structure (SMILES) | pest or weed control at 125 ppm [1] [%] | inhibition at 25 ppm [2] [%]
COc1ccc(F)cc1C(O)Cn1cc(C=NOC(C)C)c(=O)n(C(C)C(=O)NC2CC2)c1=O (centres unmarked) [A-87] | ≥ 75 | 
COc1ccc(F)cc1C(Cn1cc(C=NOC(C)(C)C)c(=O)n(C(C)C(=O)NC(C)C)c1=O)OCCC#N (centres unmarked) [A-98] | ≥ 75 | 
CCON=Cc1cn(CCc2ccccc2OC)c(=O)n(C(C)C(=O)OCC)c1=O (centres unmarked) [A-103] | ≥ 75 | 
CCON=Cc1cn(CCc2ccccc2OC)c(=O)n(C(C)C(=O)N2CCCC2)c1=O (centres unmarked) [A-104] | ≥ 75 | 
CCON=Cc1cn(CCc2ccccc2OC)c(=O)n(C(C)C(=O)NC(C)C)c1=O (centres unmarked) [A-107] | ≥ 75 | 
CCCn1c(=O)c(/C(C)=N/OC(C)C)cn(CC(O)c2cc(F)ccc2OC)c1=O (centres unmarked) [B-7] | ≥ 75 | 
COc1ccccc1CCn1cc(/C(N)=N/OC(C)C)c(=O)n(CCc2ccccc2OC)c1=O [B-8] | ≥ 75 | 
CCO/N=C(\N)c1cn(CCc2ccccc2OC)c(=O)n(CCc2ccccc2OC)c1=O [B-9] | ≥ 75 | 
COc1ccccc1C(O)Cn1cc(/C(C)=N/OC(C)C)c(=O)n(C[C@H](CC(C)C)NC(=O)C(C)C)c1=O (some centres unmarked) [C-43] |  | ≥ 50
CC[C@@H](Cn1c(=O)c(/C(C)=N/OC(C)C)cn(CC(O)c2cc(F)ccc2OC)c1=O)NC(=O)C(C)(C)C (some centres unmarked) [C-58] |  | ≥ 50
COc1ccc(F)cc1C(O)Cn1cc(/C(C)=N/OC(C)C)c(=O)n(C[C@H](CC(C)C)NC(=O)N(C)C)c1=O (some centres unmarked) [C-60] |  | ≥ 50
CCC(=O)N[C@@H](CC(C)C)Cn1c(=O)c(/C(C)=N/OC(C)C)cn(CC(O)c2cc(F)ccc2OC)c1=O (some centres unmarked) [C-62] |  | ≥ 50
COc1ccc(F)cc1C(O)Cn1cc(/C(C)=N/OC(C)C)c(=O)n(C[C@@H](NC(=S)N(C)C)C(C)C)c1=O (some centres unmarked) [C-63] |  | ≥ 50
COc1ccc(F)cc1C(O)Cn1cc(/C(C)=N/OC(C)C)c(=O)n(C[C@@H](NC(=O)N(C)C)C(C)C)c1=O (some centres unmarked) [C-69] |  | ≥ 50
COc1ccc(F)cc1C(O)Cn1cc(/C(C)=N/OC(C)C)c(=O)n(C[C@@H](NC(=O)CSC)C(C)C)c1=O (some centres unmarked) [C-75] |  | ≥ 50
COc1ccccc1C(O)Cn1cc(/C(C)=N/OC(C)C)c(=O)n(C[C@@H](NC(=O)N(C)C)C(C)C)c1=O (some centres unmarked) [C-77] |  | ≥ 50
COc1ccccc1C(O)Cn1cc(/C(C)=N/OC(C)C)c(=O)n(C[C@@H](NC(=O)C2CCC2)C(C)C)c1=O (some centres unmarked) [C-79] |  | ≥ 50
COc1ccc(F)cc1C(O)Cn1cc(/C(C)=N/OC(C)C)c(=O)n(C[C@@H](NC(=O)C(Cl)Cl)C(C)C)c1=O (some centres unmarked) [C-81] |  | ≥ 50
COc1ccc(F)cc1C(O)Cn1cc(/C(C)=N/OC(C)C)c(=O)n(C[C@@H](NC(=O)C2CC2)C(C)C)c1=O (some centres unmarked) [C-103] |  | ≥ 50
C=CC(=O)N[C@H](Cn1c(=O)c(/C(C)=N/OC(C)C)cn(CC(O)c2cc(F)ccc2OC)c1=O)C(C)C (some centres unmarked) [C-109] |  | ≥ 50

Structure (SMILES) | pest or weed control at 125 ppm [1] [%] | inhibition at 25 ppm [2] [%]
COc1ccc(F)cc1C(O)Cn1cc(/C(C)=N/OC(C)C)c(=O)n(C[C@H](C)NC(=O)CC(C)C)c1=O (some centres unmarked) [C-124] |  | ≥ 50
COc1ccc(F)cc1C(O)Cn1cc(/C(C)=N/OC(C)C)c(=O)n(C[C@H](C)NC(=O)C(C)(C)C)c1=O (some centres unmarked) [C-126] |  | ≥ 50
COc1ccccc1C(O)Cn1cc(/C(C)=N/OC(C)C)c(=O)n(C[C@@H](NC(=O)C(C)(C)C)C(C)C)c1=O (some centres unmarked) [C-129] |  | ≥ 50
CCC(=O)N[C@@H](C)Cn1c(=O)c(/C(C)=N/OC(C)C)cn(CC(O)c2cc(F)ccc2OC)c1=O (some centres unmarked) [C-137] |  | ≥ 50
COc1ccc(F)cc1C(O)Cn1cc(/C(C)=N/OC(C)C)c(=O)n(C[C@H](C)NC(=O)C2CC2)c1=O (some centres unmarked) [C-141] |  | ≥ 50
COc1ccc(F)cc1C(O)Cn1cc(/C(C)=N/OC(C)C)c(=O)n(C[C@H](Cc2ccccc2)NC(=O)C(C)C)c1=O (some centres unmarked) [C-168] |  | ≥ 50
CC/C(=N\OC(C)C)c1cn(CC(O)c2cc(F)ccc2OC)c(=O)n(C[C@H](C)NC(=O)C(C)C)c1=O (some centres unmarked) [C-172] |  | ≥ 50
COC(=O)N[C@@H](C)Cn1c(=O)c(/C(C)=N/OC(C)C)cn(CC(O)c2cc(F)ccc2OC)c1=O (some centres unmarked) [C-186] |  | ≥ 50
COc1ccc(F)cc1C(O)Cn1cc(/C(C)=N/OC(C)C)c(=O)n(C[C@H](C)NC(=O)OC(C)C)c1=O (some centres unmarked) [C-188] |  | ≥ 50
C/C(=N\OC(C)C)c1cn(CC(O)c2ccccc2OC(F)(F)F)c(=O)n(C[C@H](C)NC(=O)C(C)C)c1=O (stereo partly drawn) [C-194, N-((2S)-1-(3-(2-hydroxy-2-(2-(trifluoromethoxy)phenyl)ethyl)-5-((E)-1-(isopropoxyimino)ethyl)-2,6-dioxo-3,6-dihydropyrimidin-1(2H)-yl)propan-2-yl)isobutyramide] |  | ≥ 50
COc1ccc(F)cc1C(O)Cn1cc(/C(C)=N/OC(C)C)c(=O)n(C[C@@H](NC(=O)C(C)C)c2ccccc2)c1=O (some centres unmarked) [C-202] |  | ≥ 50
C/C(=N\OC(C)C)c1cn(CC(O)c2ccccc2C)c(=O)n(C[C@H](C)NC(=O)C(C)C)c1=O (some centres unmarked) [C-213] |  | ≥ 50
C=C(C)C(=O)N1CCC[C@H]1Cn1c(=O)c(/C(C)=N/OC(C)C)cn(CC(O)c2cc(F)ccc2OC)c1=O (stereo partly drawn) [D-11] |  | ≥ 50
COc1ccc(F)cc1C(O)Cn1cc(/C(C)=N/OC(C)C)c(=O)n(C[C@@H]2CCCN2C(=O)C(C)C)c1=O (stereo partly drawn) [D-20] |  | ≥ 50
COc1ccc(F)cc1C(O)Cn1cc(/C(C)=N/OC(C)C)c(=O)n(C[C@@H]2CCCN2C(=O)N(C)C)c1=O (stereo partly drawn) [D-22] |  | ≥ 50
COc1ccc(Cn2c(=O)c(/C(C)=N/OC(C)C)cn(CC(O)c3cc(F)ccc3OC)c2=O)cc1 [D-52] |  | ≥ 50
COc1cccc(Cn2c(=O)c(/C(C)=N/OC(C)C)cn(CC(O)c3cc(F)ccc3OC)c2=O)c1 [D-53] |  | ≥ 50
COc1ccccc1Cn1c(=O)c(/C(C)=N/OC(C)C)cn(CC(O)c2cc(F)ccc2OC)c1=O [D-54] |  | ≥ 50
COc1ccc(F)cc1C(O)Cn1cc(/C(C)=N/OC(C)C)c(=O)n(Cc2ccccn2)c1=O [D-56] |  | ≥ 50
